Data published in ChEMBL document CHEMBL1132679, “Highly increased cellular accumulation of vincristine, a useful hydrophobic antitumor-drug, in multidrug-resistant solid cancer cells induced by a simply reduced taxinine” (1999).

Assay: Relative activity on the cellular accumulation of vincristine in multidrug-resistant (MDR) human ovarian cancer 2780AD cells
Type: functional, A2780 ADR

Row | SMILES | Relative activity
1 | CC(=O)O[C@H]1[C@@H]2[C@H](C)[C@@H](O)CC[C@@]2(C)[C@@H](OC(C)=O)[C@H](OC(C)=O)C2=C(C)C(=O)C[C@@H]1C2(C)C | 48
2 | C=C1[C@@H](OCOCc2ccccc2)CC[C@@]2(C)[C@@H](OC(C)=O)[C@H](OC(C)=O)C3=C(C)C(=O)C[C@@H]([C@@H](OC(C)=O)[C@H]12)C3(C)C | 158
3 | C=C1[C@@H](OC(C)=O)CC[C@@]2(C)[C@@H](OC(C)=O)[C@H](OC(C)=O)C3=C(C)C(=O)C[C@@H]([C@@H](OC(C)=O)[C@H]12)C3(C)C | 93
4 | C=C1[C@@H](OC(=O)CCC2CCCCC2)CC[C@@]2(C)[C@@H](OC(C)=O)[C@H](OC(C)=O)C3=C(C)C(=O)C[C@@H]([C@@H](OC(C)=O)[C@H]12)C3(C)C | 97
5 | CC(=O)O[C@H]1[C@@H]2[C@H](C)[C@@H](OC(=O)CCc3ccccc3)CC[C@@]2(C)[C@@H](OC(C)=O)[C@H](OC(C)=O)C2=C(C)C(=O)C[C@@H]1C2(C)C | 44
6 | C=C1[C@@H](O)CC[C@@]2(C)[C@@H](OC(C)=O)[C@H](OC(C)=O)C3=C(C)C(=O)C[C@@H]([C@@H](OC(C)=O)[C@H]12)C3(C)C [TAXININE A] | 64
7 | CC(=O)O[C@H]1[C@@H]2[C@H](C)[C@@H](OC(=O)/C=C/c3ccccc3)CC[C@@]2(C)[C@@H](OC(C)=O)[C@H](OC(C)=O)C2=C(C)C(=O)C[C@@H]1C2(C)C | 44
8 | COc1ccc(CCN(C)CCCC(C#N)(c2ccc(OC)c(OC)c2)C(C)C)cc1OC (stereo not given) [VERAPAMIL] | 100
9 | C=C1[C@@H](OC(=O)CCc2ccccc2)CC[C@@]2(C)[C@@H](OC(C)=O)[C@H](OC(C)=O)C3=C(C)C(=O)C[C@@H]([C@@H](OC(C)=O)[C@H]12)C3(C)C | 227
10 | C=C1[C@@H](OC(=O)/C=C/c2ccccc2)CC[C@@]2(C)[C@@H](OC(C)=O)[C@H](OC(C)=O)C3=C(C)C(=O)C[C@@H]([C@@H](OC(C)=O)[C@H]12)C3(C)C | 77
